The numbers were not newly measured in US20170304196A1, “ORALLY DISINTEGRATING TABLET AND METHOD FOR PRODUCING SAME” (FUJIFILM CORPORATION, priority 2015, published 2017), which cites them from elsewhere.

For orientation: pKa means the pH at which an ionisable group is half protonated.

For the data set the following is noted: anionic substance.

As for `CCCCCCCCCCCCOS(=O)(=O)[O-].[Na+]` [sodium lauryl sulfate], the pKa is on record as 1.9.
